Laboratory results from patent publication US12612412B2, “Antiviral heterocyclic compounds” (Enanta Pharmaceuticals, Inc., priority 2021, dated 2026).

Experiments:
[1] = system: genotype A, "Long" strain RSV; assay: RSV-A assay (CPE protection in Hep-2 cells, ATPlite readout); format: cell-based, Human respiratory syncytial virus (HRSV); conditions: human respiratory syncytial virus, genotype A “Long” strain RSV, MOI 0.1, CPE protection, read-out: Human RSV-A (“Long”)
Method in brief: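 ATPlite luminescence (cellular ATP) served as the measure of cell health after 5 days of infection. Hep-2 cells at 8,000 per well received duplicate 2-fold compound dilutions plus virus at MOI 0.1, and EC50 was calculated from CPE protection.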

[2] = system: HMPV clinical isolate TN/1501/A1; assay: HMPV antiviral assay Method-B (clinical isolate TN/1501/A1 in LLC-MK2 cells, ATP-Lite readout); format: cell-based, Human metapneumovirus (HMPV); conditions: human metapneumovirus, LLC-MK2, 144 h, hMPV WT1501 (clinical isolate TN/1501/A1), 6 days
Method in brief: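 LLC-MK2 cells infected in suspension with TN/1501/A1 at MOI 0.014 in serum-free medium with 2 μg/mL TPCK-trypsin (final), incubated 6 days at 37° C. Compounds tested in duplicate, 10-point 3-fold dilutions from 10 μM. Cell health read by ATP-Lite luminescence, normalised to virus-only and cells-only controls; EC50 by four-parameter logistic fit.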

Row | SMILES | EC50 [1] [µM] | EC50 [2] [µM]
1 | COc1cc(C(=O)NC[C@](O)(c2cc3c(c(-c4ccc(Cl)c(F)c4F)n2)OC[C@]3(C)C(N)=O)C2CC2)cc2cn(C3(F)CC3)nc12 [Example 685] | < 0.2 | < 0.5
2 | C[C@]1(C(N)=O)COc2c1cc([C@@](O)(CNC(=O)c1cc(Cl)c3nn(C4CC4)cc3c1)C1CC1)nc2-c1ccc(Cl)c(F)c1F [Example 686] | < 0.2 | < 0.5
3 | COc1cc(C(=O)NC[C@](O)(c2cc3c(c(-c4ccc(Cl)c(F)c4F)n2)OC[C@]3(C)C(N)=O)C2CC2)cc2cc(Cl)c(C)nc12 [Example 687] | < 0.2 | < 0.5
4 | Cc1cnc2c(Cl)cc(C(=O)NC[C@](O)(c3cc4c(c(-c5ccc(Cl)c(F)c5F)n3)OC[C@]4(C)C(N)=O)C3CC3)cc2c1 [Example 688] | < 0.2 | < 0.5
5 | COc1cc(C(=O)NC[C@](O)(c2cc3c(c(-c4ccc(F)cc4)n2)OC[C@]3(C)C(N)=O)C(F)(F)F)n2ccnc2c1 [Example 691] | < 0.2 | > 0.5
6 | COc1ccc(C(=O)NC[C@](O)(c2cc3c(c(-c4ccc(F)cc4)n2)OC[C@]3(C)C(N)=O)C(F)(F)F)c2cc[nH]c12 [Example 693] | < 0.2 | > 0.5
7 | COc1ccc(C(=O)NC[C@](O)(c2cc3c(c(-c4ccc(F)cc4)n2)OC[C@]3(C)C(N)=O)C(F)(F)F)n2cc(C)nc12 [Example 694] | < 0.2 | > 0.5
8 | COc1ccc(C(=O)NC[C@](O)(c2cc3c(c(-c4ccc(F)cc4)n2)OC[C@]3(C)C(N)=O)C(F)(F)F)n2cc(C3CC3)nc12 [Example 695] | < 0.2 | > 0.5
9 | COc1ccc(C(=O)NC[C@](O)(c2cc3c(c(-c4ccc(F)cc4)n2)OC[C@]3(C)C(N)=O)C(F)(F)F)c2[nH]ccc12 [Example 696] | < 0.2 | > 0.5
10 | COc1cc(C(=O)NC[C@](O)(c2cc3c(c(-c4ccc5c(c4)OC(F)(F)O5)n2)OC[C@]3(C)C(N)=O)C(F)(F)F)cc2cc(C3CC3)nn12 [Example 697] | < 0.2 | < 0.5
11 | C[C@]1(C(N)=O)COc2c1cc([C@@](O)(CNC(=O)c1cc(F)c3nc(N)sc3c1)C(F)(F)F)nc2-c1ccc2c(c1)OC(F)(F)O2 [Example 698] | < 0.2 | > 0.5
12 | COc1ccc(C(=O)NC[C@](O)(c2cc3c(c(-c4ccc(F)cc4)n2)OC[C@]3(C)C(N)=O)C(F)(F)F)n2ccnc12 [Example 699] | < 0.2 | > 0.5
13 | COc1ccc(C(=O)NC[C@](O)(c2cc3c(c(-c4ccc5c(c4)OC(F)(F)O5)n2)OC[C@]3(C)C(N)=O)C(F)(F)F)n2ccnc12 [Example 700] | < 0.2 | > 0.5
14 | C[C@]1(C(N)=O)COc2c1cc([C@@](O)(CNC(=O)c1ccc(OC3CC3)c3nccn13)C(F)(F)F)nc2-c1ccc(F)cc1 [Example 702] | < 0.2 | > 0.5
15 | COc1cc(C(=O)NC[C@](O)(c2cc3c(c(-c4ccc(F)c(Cl)c4)n2)OC[C@]3(C)C(N)=O)C2CC2)cc2cc(C3CC3)nn12 [Example 703] | < 0.2 | < 0.5
16 | C[C@]1(C(N)=O)COc2c1cc([C@@](O)(CNC(=O)c1cc(F)c3nc(N)sc3c1)C1CC1)nc2-c1ccc(F)c(Cl)c1 [Example 704] | < 0.2 | < 0.5
17 | COc1cc(C(=O)NC[C@](O)(c2cc3c(c(-c4ccc(F)cc4)n2)OC[C@]3(C)C(N)=O)C2(F)CC2)cc2cn(C3CC3)nc12 [Example 705] | < 0.2 | < 0.5
18 | COc1cc(C(=O)NC[C@](O)(c2cc3c(c(-c4ccc(F)cc4)n2)OC[C@]3(C)C(N)=O)C2(F)CC2)cc2cc(C3CC3)nn12 [Example 706] | < 0.2 | < 0.5
19 | COc1cc(C(=O)NC[C@](O)(c2cc3c(c(-c4ccc(F)cc4)n2)OC[C@]3(C)C(N)=O)C2(F)CC2)cc2cc(Cl)c(C)nc12 [Example 707] | < 0.2 | < 0.5
20 | COc1cc(C(=O)NC[C@](O)(c2cc3c(c(-c4ccc(F)cc4)n2)OC[C@]3(C)C(N)=O)C2CCC2)cc2cn(C3CC3)nc12 [Example 708] | < 0.2 | < 0.5
21 | C[C@]1(C(N)=O)COc2c1cc([C@@](O)(CNC(=O)c1cc(F)c3nc(N)sc3c1)C1(F)CC1)nc2-c1ccc(F)cc1 [Example 709] | < 0.2 | > 0.5
22 | Cc1cnc2c(OC(F)F)cc(C(=O)NC[C@](O)(c3cc4c(c(-c5ccc(F)cc5)n3)OC[C@]4(C)C(N)=O)C3(F)CC3)cc2c1 [Example 710] | < 0.2 | < 0.5
23 | COc1cc(C(=O)NC[C@](O)(c2cc3c(c(-c4ccc(F)cc4)n2)OC[C@]3(C)C(N)=O)C2(F)CC2)cc2cn(C(F)F)nc12 [Example 711] | < 0.2 | < 0.5

Row | SMILES | EC50 [1] [µM] | EC50 [2] [µM]
24 | COc1cc(C(=O)NC[C@](O)(c2cc3c(c(-c4ccc5c(c4)OC(F)(F)O5)n2)OC[C@]3(C)C(N)=O)C2(F)CC2)cc2cn(C3CC3)nc12 [Example 712] | < 0.2 | < 0.5
25 | Cc1cnc2c(OC(F)F)cc(C(=O)NC[C@](O)(c3cc4c(c(-c5ccc6c(c5)OC(F)(F)O6)n3)OC[C@]4(C)C(N)=O)C3(F)CC3)cc2c1 [Example 713] | < 0.2 | < 0.5
26 | COc1cc(C(=O)NC[C@](O)(c2cc3c(c(-c4ccc(F)c(Cl)c4)n2)OC[C@]3(C)C(N)=O)C2(F)CC2)cc2cn(C3CC3)nc12 [Example 714] | < 0.2 | < 0.5
27 | Cc1cnc2c(OC(F)F)cc(C(=O)NC[C@](O)(c3cc4c(c(-c5ccc(F)c(Cl)c5)n3)OC[C@]4(C)C(N)=O)C3(F)CC3)cc2c1 [Example 715] | < 0.2 | < 0.5
28 | COc1cc(C(=O)NC[C@](O)(c2cc3c(c(-c4ccc5c(c4)OC(F)(F)O5)n2)OC[C@]3(C)C(N)=O)C2(F)CC2)cc2cc(C3CC3)nn12 [Example 716] | < 0.2 | < 0.5
29 | COc1cc(C(=O)NC[C@](O)(c2cc3c(c(-c4ccc5c(c4)OC(F)(F)O5)n2)OC[C@]3(C)C(N)=O)C2(F)CC2)cc2cc(Cl)c(C)nc12 [Example 717] | < 0.2 | < 0.5
30 | COc1cc(C(=O)NC[C@](O)(c2cc3c(c(-c4ccc(F)c(Cl)c4)n2)OC[C@]3(C)C(N)=O)C2(F)CC2)cc2cc(C3CC3)nn12 [Example 718] | < 0.2 | > 0.5
31 | COc1cc(C(=O)NC[C@](O)(c2cc3c(c(-c4ccc(F)c(Cl)c4)n2)OC[C@]3(C)C(N)=O)C2(F)CC2)cc2cc(Cl)c(C)nc12 [Example 719] | < 0.2 | < 0.5
32 | COc1cc(C(=O)NC[C@](O)(c2cc3c(c(-c4ccc5c(c4)OC(F)(F)O5)n2)OC[C@]3(C)C(N)=O)C2(F)CC2)cc2cn(C(F)F)nc12 [Example 720] | < 0.2 | < 0.5
33 | COc1cc(C(=O)NC[C@](O)(c2cc3c(c(-c4ccc(F)c(Cl)c4)n2)OC[C@]3(C)C(N)=O)C2(F)CC2)cc2cn(C(F)F)nc12 [Example 721] | < 0.2 | > 0.5
34 | COc1cc(C(=O)NC[C@](O)(c2cc3c(c(-c4ccc(F)c(Cl)c4)n2)OC[C@]3(C)C(N)=O)C2CC2)cc2sc(C)nc12 [Example 722] | < 0.2 | < 0.5
35 | COc1cc(C(=O)NC[C@](O)(c2cc3c(c(-c4ccc(F)c(Cl)c4)n2)OC[C@]3(C)C(N)=O)C2(F)CC2)cc2sc(C)nc12 [Example 723] | < 0.2 | < 0.5
36 | COc1cc(C(=O)NC[C@](O)(c2cc3c(c(-c4ccc(F)cc4)n2)OC[C@]3(C)C(N)=O)C2(F)CC2)cc2sc(C)nc12 [Example 724] | < 0.2 | < 0.5
37 | COc1cc(C(=O)NC[C@](O)(c2cc3c(c(-c4ccc5c(c4)OC(F)(F)O5)n2)OC[C@]3(C)C(N)=O)C2(F)CC2)cc2cn(C3(F)CC3)nc12 [Example 725] | < 0.2 | < 0.5
38 | COc1cc(C(=O)NC[C@](O)(c2cc3c(c(-c4ccc(F)cc4)n2)OC[C@]3(C)C(N)=O)C2CCC2)cc2cn(C3(F)CC3)nc12 [Example 726] | < 0.2 | < 0.5
39 | COc1cc(C(=O)NC[C@](O)(c2cc3c(c(-c4ccc5c(c4)OC(F)(F)O5)n2)OC[C@]3(C)C(N)=O)C2(F)CC2)cc2sc(C)nc12 [Example 727] | < 0.2 | < 0.5
40 | COc1cc(C(=O)NC[C@](O)(c2cc3c(c(-c4ccc(F)cc4)n2)OC[C@]3(C)C(N)=O)C2CC2)cc2sc(C)nc12 [Example 728] | < 0.2 | < 0.5
41 | COc1cc(C(=O)NC[C@](O)(c2cc3c(c(-c4ccc(F)c(F)c4F)n2)OC[C@]3(C)C(N)=O)C2(F)CC2)cc2cn(C3CC3)nc12 [Example 729] | < 0.2 | < 0.5
42 | Cc1cnc2c(OC(F)F)cc(C(=O)NC[C@](O)(c3cc4c(c(-c5ccc(F)c(F)c5F)n3)OC[C@]4(C)C(N)=O)C3(F)CC3)cc2c1 [Example 730] | < 0.2 | < 0.5
43 | COc1cc(C(=O)NC[C@](O)(c2cc3c(c(-c4ccc(F)c(F)c4F)n2)OC[C@]3(C)C(N)=O)C2(F)CC2)cc2cc(Cl)c(C)nc12 [Example 731] | < 0.2 | < 0.5
44 | COc1cc(C(=O)NC[C@](O)(c2cc3c(c(-c4ccc(F)cc4Cl)n2)OC[C@]3(C)C(N)=O)C2(F)CC2)cc2cn(C3CC3)nc12 [Example 732] | < 0.2 | < 0.5
45 | Cc1cnc2c(OC(F)F)cc(C(=O)NC[C@](O)(c3cc4c(c(-c5ccc(F)cc5Cl)n3)OC[C@]4(C)C(N)=O)C3(F)CC3)cc2c1 [Example 733] | < 0.2 | < 0.5
46 | COc1cc(C(=O)NC[C@](O)(c2cc3c(c(-c4ccc(F)cc4Cl)n2)OC[C@]3(C)C(N)=O)C2(F)CC2)cc2cc(Cl)c(C)nc12 [Example 734] | < 0.2 | < 0.5
